Data on nine compounds can be found in PubChem BioAssay (NCI).

Among the test systems are TK-10 renal; MDA-MB-435; U251 CNS; HCT-116 colon; HOP-62 NSCLC; RXF 393 renal; SF-539 CNS; A498 renal; NCI-H460 lung; UACC-257 melanoma.
Holding throughout (test): DTP human tumour cell line panel, 48 h

As a reminder, the GI50 is the concentration at which growth is held to half of that of the control. Broadly, the TGI is the concentration giving total growth inhibition. Lower therefore signals greater sensitivity of the cells.

Each structure is given as a SMILES string. Several values for one entry are separate records, joined by “and”; a condition that tells them apart may be missing. Equal values may be shown once.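 Following 48 hours of exposure in 96-well plates, responses at five concentrations were used to interpolate endpoints linearly. GI50: concentration for 50% inhibition of growth. TGI is the concentration that stops growth completely.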

Consider `COC(C(=O)C(O)C(C)O)C1Cc2cc3cc(OC4CC(OC5CC(O)C(O)C(C)O5)C(O)C(C)O4)c(C)c(O)c3c(O)c2C(=O)C1OC1CC(OC2CC(O)C(OC3CC(C)(O)C(O)C(C)O3)C(C)O2)C(O)C(C)O1` (stereo not given), for which the GI50 is 25.2 ng/mL and 295 ng/mL with TK-10 renal; 12.1 ng/mL and 339 ng/mL in the assay on MDA-MB-435; 11.2 ng/mL and 0.643 ng/mL with U251 CNS; 11.2 ng/mL and 15 ng/mL with HCT-116 colon; 11.2 ng/mL and 0.0327 ng/mL with HOP-62 NSCLC; 11.2 ng/mL and 0.246 ng/mL in the assay with RXF 393 renal. Besides, the GI50 with SF-539 CNS was 11.2 ng/mL and 0.474 ng/mL; in the assay with A498 renal, 11.2 ng/mL and 0.0278 ng/mL; in the assay with NCI-H460 lung it was 11.2 ng/mL and 0.613 ng/mL; in the assay on UACC-257 melanoma, 12.2 ng/mL and 1.15 ng/mL. Further, the TGI in the assay with UACC-257 melanoma is 59.8 ng/mL and 27 ng/mL.

For `O=C1C(=O)c2ccccc2C(O)=C1CCCc1ccc(C2CCCC2)cc1`, the GI50 in the assay with TK-10 renal was 6.99 µM; in the assay with MDA-MB-435, 5.1 µM; in the assay on U251 CNS, 5.3 µM; in the assay on HCT-116 colon, 3.55 µM; in the assay on HOP-62 NSCLC, 8.04 µM; with RXF 393 renal it was 1.41 µM. For the same compound, the GI50 in the assay with SF-539 CNS is 5.57 µM; in the assay with A498 renal, 7.24 µM; in the assay on NCI-H460 lung it was 3.11 µM; with UACC-257 melanoma, 3.91 µM. In addition, the TGI in the assay on TK-10 renal was determined as 34.1 µM; with MDA-MB-435, 38.8 µM; in the assay with U251 CNS, 33.6 µM; in the assay on HCT-116 colon it was 13.2 µM; in the assay on HOP-62 NSCLC, 23.6 µM; with RXF 393 renal, 11.6 µM. Also, the TGI with SF-539 CNS was determined as 25.9 µM; with A498 renal, 23 µM; in the assay with NCI-H460 lung it was 11.8 µM; with UACC-257 melanoma, 28.2 µM.

Take `N#Cc1ccsc1NC(=O)COC(=O)c1cccc(S(=O)(=O)N2CCc3ccccc32)c1`: the GI50 in the assay with TK-10 renal is above 100 µM; in the assay on MDA-MB-435, 41.4 µM; in the assay with U251 CNS it was 11.2 µM; in the assay on HCT-116 colon it was 4.78 µM; in the assay on HOP-62 NSCLC it was 22 µM; in the assay with RXF 393 renal, 31.3 µM. Moreover, the GI50 in the assay with SF-539 CNS was 15.1 µM; in the assay with A498 renal, above 100 µM; with NCI-H460 lung it was 18.2 µM; with UACC-257 melanoma it was 28.9 µM. Moreover, the TGI with TK-10 renal, in the assay with MDA-MB-435, in the assay on U251 CNS, in the assay on HCT-116 colon, in the assay on HOP-62 NSCLC and with RXF 393 renal was above 100 µM in each case. Further, the TGI in the assay on SF-539 CNS, in the assay with A498 renal, in the assay with NCI-H460 lung and in the assay with UACC-257 melanoma was above 100 µM throughout.

`CCCCCc1cc[n+](CC(=O)c2ccc([N+](=O)[O-])cc2)cc1`: the GI50 with TK-10 renal was 9.65 µM; in the assay on MDA-MB-435 it was 3.7 µM; with U251 CNS, 4.44 µM; in the assay with HCT-116 colon, 3.14 µM; in the assay with HOP-62 NSCLC, 3.94 µM; with RXF 393 renal it was 24.3 µM. In addition, the GI50 is 20.3 µM with SF-539 CNS, 10.4 µM in the assay with A498 renal, 3.09 µM in the assay on NCI-H460 lung and 2.28 µM with UACC-257 melanoma. In addition, the total growth inhibition concentration (TGI) turned out to be 33.7 µM in the assay with TK-10 renal; 14.6 µM in the assay with MDA-MB-435; 28.2 µM with U251 CNS; 11.4 µM with HCT-116 colon; 28.3 µM in the assay with HOP-62 NSCLC; 94.4 µM in the assay with RXF 393 renal. Besides, the TGI in the assay on SF-539 CNS stood at 72.1 µM; in the assay on A498 renal, 24.6 µM; in the assay with NCI-H460 lung, 11.6 µM; with UACC-257 melanoma, 7.08 µM.

For `c1ccc(CN2CCC3(CC2)SSC2(CCN(Cc4ccccc4)CC2)SS3)cc1`, the TGI with TK-10 renal, in the assay on MDA-MB-435, in the assay on U251 CNS, in the assay with HCT-116 colon, with HOP-62 NSCLC and with RXF 393 renal was above 100 µM in each case. Also, the TGI with SF-539 CNS, in the assay on A498 renal, in the assay with NCI-H460 lung and in the assay with UACC-257 melanoma was above 100 µM throughout.

For `COc1ccc2c(c1)C1OCCNC1CC2` (stereo not given), the TGI in the assay with TK-10 renal, in the assay with MDA-MB-435, in the assay on U251 CNS, in the assay with HCT-116 colon, in the assay with HOP-62 NSCLC and with RXF 393 renal was above 100 µM throughout. Also, the TGI in the assay with SF-539 CNS, with A498 renal and with UACC-257 melanoma was above 100 µM each time.

Turning to `CCCCCCCCCCC/C=C\C[C@H](O)C/C=C1/C(=O)C=C[C@@H]1C/C=C\CCCC(=O)OC`, the GI50 with TK-10 renal was 1.95 µM; in the assay on MDA-MB-435 it was 0.71 µM; in the assay with U251 CNS, 0.581 µM; in the assay on HCT-116 colon, 0.734 µM; in the assay on HOP-62 NSCLC, 1.01 µM; with RXF 393 renal, 0.827 µM. Besides, the results for the GI50 with SF-539 CNS, in the assay with A498 renal and in the assay on NCI-H460 lung were 1.02 µM, 7.68 µM and 1.11 µM, respectively. Further, the TGI in the assay on TK-10 renal amounted to 9.78 µM; in the assay on MDA-MB-435, 1.8 µM; in the assay on U251 CNS it was 1.53 µM; with HCT-116 colon it was 1.83 µM; in the assay on HOP-62 NSCLC, 3.51 µM; with RXF 393 renal, 3.18 µM. Also, the concentration for total growth inhibition (TGI) in the assay on SF-539 CNS was found to be 3.71 µM; in the assay on A498 renal it was 13.6 µM; in the assay on NCI-H460 lung, 3.91 µM.

On to `CC(=O)OC12c3ccccc3-c3ccccc3C1C(C(=O)O)C2(Cl)C(=O)O` (stereo not given), for which the TGI in the assay with TK-10 renal, with MDA-MB-435, with U251 CNS, in the assay on HOP-62 NSCLC, in the assay on RXF 393 renal and in the assay on SF-539 CNS was above 10 µM in each case. Besides, the TGI with A498 renal, in the assay with NCI-H460 lung and with UACC-257 melanoma was above 10 µM throughout.

Consider `O=[N+]([O-])c1ccc(Sc2nc(Cl)nc(NC3CCCC3)n2)cc1`, for which the GI50 with TK-10 renal was above 10 µM; in the assay on MDA-MB-435, above 10 µM; in the assay with U251 CNS, above 10 µM; in the assay on HCT-116 colon it was 4.83 µM; in the assay on HOP-62 NSCLC, above 10 µM; in the assay on RXF 393 renal it was 3.34 µM. Further, the GI50 with SF-539 CNS, in the assay with A498 renal and in the assay on NCI-H460 lung was above 10 µM each time. Besides, the TGI in the assay with TK-10 renal, with MDA-MB-435, with U251 CNS, in the assay with HCT-116 colon, in the assay with HOP-62 NSCLC and in the assay with RXF 393 renal was above 10 µM throughout. In addition, the TGI with SF-539 CNS, in the assay on A498 renal and with NCI-H460 lung was above 10 µM each time.
